Results taken from ChEMBL document CHEMBL3044672, “N9- and N7-(Chloromethyl Phenymethyl)Chloropurine Derivatives from , '-Dichloroxylenes: Synthesis and Anticancer Activity” (2005).

Assays:
Format in all cases: functional
[1] = system: M14; experiment: Cytotoxicity against Homo sapiens (human) M14 cells after 48 hr by sulforhodamine B assay; conditions: M14, 48 h
[2] = system: T47D; experiment: Cytotoxicity against Homo sapiens (human) T47D cells after 48 hr by sulforhodamine B assay
[3] = system: EKVX; experiment: Cytotoxicity against Homo sapiens (human) EKVX cells after 48 hr by sulforhodamine B assay; conditions: for CC50: read-out: LC50 (the source's name)
[4] = system: SF-268; experiment: Cytotoxicity against Homo sapiens (human) SF268 cells after 48 hr by sulforhodamine B assay; conditions: SF-268, 48 h
[5] = system: A549; experiment: Cytotoxicity against Homo sapiens (human) A549 cells after 48 hr by sulforhodamine B assay; conditions: A549, 48 h; for CC50: read-out: LC50 (the source's name)
[6] = system: CAKI-1; experiment: Cytotoxicity against Homo sapiens (human) Caki1 cells after 48 hr by sulforhodamine B assay; conditions: CAKI-1, 48 h
[7] = system: MOLT-4; experiment: Cytotoxicity against Homo sapiens (human) MOLT4 cells after 48 hr by sulforhodamine B assay; conditions: MOLT-4, 48 h; for CC50: read-out: LC50 (the source's name)
[8] = system: MCF7; experiment: Cytotoxicity against Homo sapiens (human) MCF7 cells assessed as cell growth at 10^-4 M after 48 hr by Alamar blue assay; conditions: MCF7, 48 h, read-out: Activity
[9] = system: MDA-MB-231; experiment: Cytotoxicity against Homo sapiens (human) MDA-MB-231 cells after 48 hr by sulforhodamine B assay; conditions: MDA-MB-231, 48 h
[10] = system: ACHN; experiment: Cytotoxicity against Homo sapiens (human) ACHN cells after 48 hr by sulforhodamine B assay; conditions: for CC50: read-out: LC50 (the source's name)
[11] = system: TK-10; experiment: Cytotoxicity against Homo sapiens (human) TK10 cells after 48 hr by sulforhodamine B assay; conditions: TK-10, 48 h; for CC50: read-out: LC50 (the source's name)
[12] = system: Hs-578T; experiment: Cytotoxicity against Homo sapiens (human) Hs 578T cells after 48 hr by sulforhodamine B assay
[13] = system: HCC 2998; experiment: Cytotoxicity against Homo sapiens (human) HCC2998 cells after 48 hr by sulforhodamine B assay; conditions: HCC 2998, 48 h; for CC50: read-out: LC50 (the source's name)
[14] = system: OVCAR-5; experiment: Cytotoxicity against Homo sapiens (human) OVCAR5 cells after 48 hr by sulforhodamine B assay; conditions: OVCAR-5, 48 h; for CC50: read-out: LC50 (the source's name)
[15] = system: SK-MEL-2; experiment: Cytotoxicity against Homo sapiens (human) SK-MEL-2 cells after 48 hr by sulforhodamine B assay; conditions: SK-MEL-2, 48 h
[16] = system: HOP-62; experiment: Cytotoxicity against Homo sapiens (human) HOP62 cells after 48 hr by sulforhodamine B assay; conditions: HOP-62, 48 h; for CC50: read-out: LC50 (the source's name)
[17] = system: SNB-19; experiment: Cytotoxicity against Homo sapiens (human) SNB19 cells after 48 hr by sulforhodamine B assay; conditions: SNB-19, 48 h
[18] = system: LOX IMVI; experiment: Cytotoxicity against Homo sapiens (human) LOXIMVI cells after 48 hr by sulforhodamine B assay
[19] = system: IGROV-1; experiment: Cytotoxicity against Homo sapiens (human) IGROV1 cells after 48 hr by sulforhodamine B assay; conditions: IGROV-1, 48 h
[20] = system: UACC-257; experiment: Cytotoxicity against Homo sapiens (human) UACC257 cells after 48 hr by sulforhodamine B assay; conditions: UACC-257, 48 h
[21] = system: RXF 393; experiment: Cytotoxicity against Homo sapiens (human) RXF393 cells after 48 hr by sulforhodamine B assay; conditions: RXF 393, 48 h; for CC50: read-out: LC50 (the source's name)
[22] = system: DU-145; experiment: Cytotoxicity against Homo sapiens (human) DU145 cells after 48 hr by sulforhodamine B assay; conditions: DU-145, 48 h
[23] = system: NCI-H322M; experiment: Cytotoxicity against Homo sapiens (human) NCI-H322M cells after 48 hr by sulforhodamine B assay; conditions: for CC50: read-out: LC50 (the source's name)
[24] = system: 786-0; experiment: Cytotoxicity against Homo sapiens (human) 786-0 cells after 48 hr by sulforhodamine B assay; conditions: 786-0, 48 h
[25] = system: NCI-H460; experiment: Cytotoxicity against Homo sapiens (human) NCI-H460 cells after 48 hr by sulforhodamine B assay; conditions: NCI-H460, 48 h; for CC50: read-out: LC50 (the source's name)
[26] = system: UACC-62; experiment: Cytotoxicity against Homo sapiens (human) UACC62 cells after 48 hr by sulforhodamine B assay; conditions: UACC-62, 48 h
[27] = system: SK-MEL-5; experiment: Cytotoxicity against Homo sapiens (human) SK-MEL-5 cells after 48 hr by sulforhodamine B assay; conditions: SK-MEL-5, 48 h
[28] = system: NCI-H23; experiment: Cytotoxicity against Homo sapiens (human) NCI-H23 cells after 48 hr by sulforhodamine B assay; conditions: NCI-H23, 48 h; for CC50: read-out: LC50 (the source's name)
[29] = system: SF-295; experiment: Cytotoxicity against Homo sapiens (human) SF295 cells after 48 hr by sulforhodamine B assay; conditions: SF-295, 48 h; for CC50: read-out: LC50 (the source's name)
[30] = Cytotoxicity against Homo sapiens (human) NCI-ADR-RES cells after 48 hr by sulforhodamine B assay
[31] = system: HOP-92; experiment: Cytotoxicity against Homo sapiens (human) HOP92 cells after 48 hr by sulforhodamine B assay; conditions: HOP-92, 48 h; for CC50: read-out: LC50 (the source's name)
[32] = system: SK-OV-3; experiment: Cytotoxicity against Homo sapiens (human) SKOV3 cells after 48 hr by sulforhodamine B assay; conditions: SK-OV-3, 48 h
[33] = read-out: LC50 (the source's name)

ClCc1cccc(Cn2cnc3nc(Cl)nc(Cl)c32)c1
GI50 [1]: 1.38 µM | LC50 [1]: 5.12 µM | TGI [1]: 2.63 µM | GI50 [2]: 0.22 µM | LC50 [2]: > 100 µM | TGI [2]: 0.61 µM | GI50 [3]: 0.93 µM | TGI [3]: 2.13 µM | CC50 [3]: 4.57 µM | GI50 [4]: 2.13 µM | TGI [4]: 3.8 µM | GI50 [5]: 12 µM | TGI [5]: 25.7 µM | CC50 [5]: 55 µM | GI50 [6]: 1.86 µM | TGI [6]: 3.46 µM | GI50 [7]: 1.04 µM | TGI [7]: 2.29 µM | CC50 [7]: 5.01 µM | growth at 100 µM [8]: 0% | GI50 [9]: 0.46 µM | LC50 [9]: 4.16 µM | TGI [9]: 1.73 µM | GI50 [10]: 1.12 µM | TGI [10]: 2.34 µM | CC50 [10]: 4.78 µM | GI50 [11]: 16.6 µM | TGI [11]: 30.2 µM | CC50 [11]: 55 µM | GI50 [12]: 1.41 µM | TGI [12]: 2.81 µM | GI50 [13]: 1.9 µM | TGI [13]: 3.31 µM | CC50 [13]: 5.75 µM | GI50 [14]: 1.69 µM | TGI [14]: 3.23 µM | CC50 [14]: 6.3 µM | GI50 [15]: 1.77 µM | LC50 (concentration killing 50% of cells) [15]: 7.76 µM | TGI [15]: 3.71 µM | GI50 [16]: 2.18 µM | TGI [16]: 3.63 µM | CC50 [16]: 6.02 µM | GI50 [17]: 1.38 µM | LC50 [17]: 5.12 µM | TGI [17]: 2.69 µM | GI50 [18]: 0.23 µM | TGI [18]: 0.79 µM | GI50 [19]: 17 µM | LC50 [19]: 55 µM | TGI [19]: 30.9 µM | GI50 [20]: 3.46 µM | LC50 (concentration killing 50% of cells) [20]: 38.9 µM | TGI [20]: 15.1 µM | GI50 [21]: 1.34 µM | TGI [21]: 2.63 µM | CC50 [21]: 5.12 µM | GI50 [22]: 0.14 µM | LC50 [22]: 0.52 µM | TGI [22]: 0.26 µM | GI50 [23]: 14.1 µM | TGI [23]: 26.9 µM | CC50 [23]: 52.5 µM | GI50 [24]: 1.58 µM | LC50 [24]: 5.37 µM | TGI [24]: 2.88 µM | GI50 [25]: 1.69 µM | TGI [25]: 3.09 µM | CC50 [25]: 5.49 µM | GI50 [26]: 1.02 µM | LC50 (concentration causing 50% net cell kill) [26]: 4.67 µM | TGI [26]: 2.18 µM | GI50 [27]: 1.2 µM | LC50 [27]: 4.89 µM | TGI [27]: 2.45 µM | GI50 [28]: 1.54 µM | TGI [28]: 30.9 µM | CC50 [28]: 5.37 µM | GI50 [29]: 1.86 µM | TGI [29]: 3.38 µM | CC50 [29]: 6.3 µM | GI50 [30]: 1.54 µM | LC50 (concentration killing 50% of cells) [30]: > 100 µM | TGI [30]: 3.09 µM | GI50 [31]: 1.47 µM | TGI [31]: 2.75 µM | CC50 [31]: 5.24 µM

ClCc1ccc(Cn2cnc3c(Cl)ncnc32)cc1
GI50 [1]: 1.28 µM | LC50 [1]: 9.12 µM | TGI [1]: 3.46 µM | GI50 [3]: 2.45 µM | TGI [3]: 6.92 µM | CC50 [3]: 38.9 µM | GI50 [4]: 0.64 µM | TGI [4]: 2.88 µM | CC50 [4, 33]: 9.33 µM | GI50 [5]: 1.38 µM | TGI [5]: 18.2 µM | CC50 [5]: 51.3 µM | GI50 [6]: 0.26 µM | TGI [6]: 0.64 µM | CC50 [6, 33]: 2.39 µM | GI50 [7]: 4.78 µM | TGI [7]: > 100 µM | CC50 [7]: > 100 µM | growth at 100 µM [8]: 7% | GI50 [9]: 1.77 µM | LC50 [9]: 8.7 µM | TGI [9]: 3.89 µM | GI50 [10]: 0.31 µM | TGI [10]: 1.28 µM | CC50 [10]: 3.8 µM | GI50 [11]: 1.09 µM | TGI [11]: 4.67 µM | CC50 [11]: 22.9 µM | GI50 [12]: 10.2 µM | LC50 [12]: > 100 µM | TGI [12]: 38.9 µM | GI50 [13]: 0.66 µM | TGI [13]: 2.04 µM | CC50 [13]: 5.12 µM | GI50 [14]: 2.95 µM | TGI [14]: 9.23 µM | CC50 [14]: 34.7 µM | GI50 [15]: 4.36 µM | LC50 (concentration killing 50% of cells) [15]: > 100 µM | TGI [15]: > 100 µM | GI50 [16]: 1.94 µM | TGI [16]: 6.76 µM | CC50 [16]: 32.4 µM | GI50 [17]: 3.63 µM | LC50 [17]: 89.1 µM | TGI [17]: 21.9 µM | GI50 [32]: 3.38 µM | LC50 [32]: 91.2 µM | TGI [32]: 13.8 µM | GI50 [18]: 1 µM | LC50 [18]: 13.5 µM | TGI [18]: 3.46 µM | GI50 [19]: 3.16 µM | LC50 [19]: > 100 µM | TGI [19]: 25.1 µM | GI50 [20]: 7.41 µM | LC50 (concentration killing 50% of cells) [20]: 97.7 µM | TGI [20]: 28.8 µM | GI50 [21]: 2.3 µM | TGI [21]: 5.49 µM | CC50 [21]: > 100 µM | GI50 [22]: 1.31 µM | LC50 [22]: 36.3 µM | TGI [22]: 11.8 µM | GI50 [23]: 1.82 µM | TGI [23]: 4.16 µM | CC50 [23]: 9.33 µM | GI50 [24]: 1.02 µM | LC50 [24]: 21.4 µM | TGI [24]: 3.98 µM | GI50 [25]: 0.05 µM | TGI [25]: 1.82 µM | CC50 [25]: 26.9 µM | GI50 [26]: 1.23 µM | LC50 (concentration causing 50% net cell kill) [26]: 9.45 µM | TGI [26]: 33.9 µM | GI50 [27]: 3.23 µM | LC50 [27]: 74.1 µM | TGI [27]: 20.9 µM | GI50 [28]: 0.66 µM | TGI [28]: 2.45 µM | CC50 [28]: 7.76 µM | GI50 [29]: 0.27 µM | TGI [29]: 3.46 µM | CC50 [29]: 24 µM | GI50 [30]: 1.51 µM | LC50 (concentration killing 50% of cells) [30]: 38.9 µM | TGI [30]: 5.49 µM | GI50 [31]: 6.02 µM | TGI [31]: 66.1 µM | CC50 [31]: > 100 µM
